Data published in patent US20250331542A1, “SWEETENER COMPOSITIONS” (Firmenich SA, priority 2022, published 2025).

Experiments:
Type in all cases: in vivo, human
[1] = test system: sweet taste of a water solution containing 4% sucrose; assay: Sensory panel, sweet taste in sucrose solution; details: for Intensity (sweet): Sucrose solution; for sweet enhancing effect for a sucrose solution (in words): summary of Tables 1-12
From the text: (§1) Methodology: A panel consisted of 8 to 25 trained panelists evaluating the samples for taste properties (sweet, and/or sweet off-taste such as lingering) on a scale of −5 to 5 (−5 denoted strong masking effect and 5 denoted strong enhancing effect, 0 being the intensity of a reference water solution containing 4% sucrose or 0.02% SG95 stevia product).

[2] = test system: sweet taste of a water solution containing 0.02% SG95 stevia product; assay: Sensory panel, sweet taste in SG95 stevia product solution; details: for Intensity (sweet): scale -5 to 5, 0 = reference 0.02% SG95; for sweet enhancing effect for an SG95 stevia product solution (in words): summary of Tables 5-6
From the text: as §1

[3] = test system: lingering (sweet off-taste) of a water solution containing 0.02% SG95 stevia product; assay: Sensory panel, lingering off-taste in SG95 stevia product solution
From the text: as §1

[4] = dosage 10 ppm, scale -5 (strong masking) to 5 (strong enhancing), 0 = reference 4% sucrose
[5] = dosage 40 ppm, scale -5 to 5, 0 = reference 4% sucrose

SMILES | Intensity (sweet) [1, 4] | sweet enhancing effect for a sucrose solution (in words) [1] | further results
O=C1CC(c2ccc(O)cc2)Oc2cc(O)c([C@@H]3O[C@H](CO)[C@@H](O)[C@H](O)[C@H]3O)c(O)c21 (stereo partly drawn) [Compound 1, naringenin 6-C-β-D glucoside] | 0.49 | significant sweet enhancing effect | –
O=C1CC(c2ccc(O)c(O)c2)Oc2cc(O)c([C@@H]3O[C@H](CO)[C@@H](O)[C@H](O)[C@H]3O)c(O)c21 (stereo partly drawn) [Compound 4, eriodictyol 6-C-β-D glucoside] | 0.64 | significant sweet enhancing effect | –
COc1ccc(C2CC(=O)c3c(cc(O)c([C@@H]4O[C@H](CO)[C@@H](O)[C@H](O)[C@H]4O)c3O)O2)cc1O (stereo partly drawn) [Compound 7, hesperetin 6-C-β-D glucoside] | 0.57 | significant sweet enhancing effect | –
COc1ccc(C2CC(=O)c3c(O)c([C@@H]4O[C@H](CO)[C@@H](O)[C@H](O)[C@H]4O)c(O)c([C@@H]4O[C@H](CO)[C@@H](O)[C@H](O)[C@H]4O)c3O2)cc1O (stereo partly drawn) [Compound 9, hesperetin 6,8-di-C-β-D glucoside] | 0.31 | sweet enhancing effect | –
O=C(CCc1ccc(O)cc1)c1c(O)cc(O[C@@H]2O[C@H](CO)[C@@H](O)[C@H](O)[C@H]2O)c([C@@H]2O[C@H](CO)[C@@H](O)[C@H](O)[C@H]2O)c1O [Compound 13, trilobatin 3′-C-β-D glucoside] | 0.67 | significant sweet enhancing effect | –
C[C@@H]1O[C@@H](c2c(O)cc3c(c2O)C(=O)CC(c2ccc(O)cc2)O3)[C@H](O)[C@H](O)[C@H]1O (stereo partly drawn) [Compound 15, naringenin 6-C-rhamnoside] | – | sweet enhancing effect | –
CC1OC(c2c(O)cc3c(c2O)C(=O)CC(c2ccc(O)cc2)O3)C(O)C(O)C1O (stereo not drawn) [Compound 16, naringenin 6-C-rhamnoside] | – | sweet enhancing effect | –
O=c1cc(-c2ccc(O)c(O)c2)oc2cc(O)c([C@@H]3O[C@H](CO)[C@@H](O)[C@H](O)[C@H]3O)c(O)c12 [Compound 17, Isoorientin] | – | sweet enhancing effect | Intensity (sweet) [1, 5]: 0.25
O=c1cc(-c2ccc(O)c(O)c2)oc2c([C@@H]3O[C@H](CO)[C@@H](O)[C@H](O)[C@H]3O)c(O)cc(O)c12 [Compound 18, orientin] | – | significant sweet enhancing effect | Intensity (sweet) [1, 5]: 0.50
O=C(CCc1ccc(O)c(O)c1)c1c(O)cc(O)c([C@@H]2O[C@H](CO)[C@@H](O)[C@H](O)[C@H]2O)c1O [Compound 20, aspalathin] | 0.42 | significant sweet enhancing effect | –
O=C(CCc1ccc(O)cc1)c1c(O)cc(O)c([C@@H]2O[C@H](CO)[C@@H](O)[C@H](O)[C@H]2O)c1O [Compound 21, nothofagin] | 0.46 | significant sweet enhancing effect | Intensity (sweet) ([2]; dosage 20 ppm): 0.25; sweet enhancing effect for an SG95 stevia product solution (in words) [2]: sweet enhancing effect
O=C(CCc1ccc(O)cc1)c1c(O)c([C@@H]2O[C@H](CO)[C@@H](O)[C@H](O)[C@H]2O)c(O)c([C@@H]2O[C@H](CO)[C@@H](O)[C@H](O)[C@H]2O)c1O [Compound 22, Phloretin-3′,5′-di-C-β-D-glucoside] | – | sweet enhancing effect | Intensity (sweet) ([2]; dosage 40 ppm): 0.25; sweet enhancing effect for an SG95 stevia product solution (in words) [2]: sweet enhancing effect; Intensity (lingering) ([3]; dosage 40 ppm, scale -5 (strong masking) to 5, 0 = reference 0.02% SG95): −0.33; off taste masking effect for an SG95 stevia product solution (in words) ([3]; lingering): lingering masking; Intensity (sweet) [1, 5]: 0.23
O=c1cc(-c2ccc(O)cc2)oc2c([C@@H]3O[C@H](CO)[C@@H](O)[C@H](O)[C@H]3O)c(O)cc(O)c12 [Compound 23] | 0.50 | significant sweet enhancing effect | –
